According to ChEMBL document CHEMBL1139227, “Discovery of a series of 6,7-dimethoxy-4-pyrrolidylquinazoline PDE10A inhibitors” (J Med Chem, 2007):
Active and inactive are the calls of the source. The calls are words filed in the database; no cut-off is given here.

What was measured:
[1] = target: cGMP-inhibited 3',5'-cyclic phosphodiesterase 3B (Homo sapiens, UniProt Q13370); assay: Inhibition of human recombinant PDE3B transfected in Sf9 cells by SPA
[2] = target: cGMP-inhibited 3',5'-cyclic phosphodiesterase 3A (Homo sapiens, UniProt Q14432); assay: Inhibition of human recombinant PDE3A transfected in Sf9 cells by SPA
[3] = Inhibition of rat recombinant PDE10A transfected in Sf9 cells by SPA
Mus musculus [4] = assay: Increase of phosphorylated CREB level in CD1 mice striatal tissue at 32 mg/kg, sc after 30 mins; assay type: functional, organism-based; parameters: dose 32 mg/kg; details: Striatum
Mus musculus [5] = assay: Increase of phosphorylated CREB level in CD1 mice striatal tissue at 32 mg/kg, sc after 90 mins; assay type: functional, organism-based; parameters: dose 32 mg/kg; details: Striatum
Mus musculus [6] = assay: Increase of cGMP level in CD1 mouse striatal tissue at 10 mg/kg, sc; assay type: functional, organism-based; parameters: dose 10 mg/kg; details: Striatum
Mus musculus [7] = assay: Increase of cGMP level in CD1 mouse striatal tissue at 32 mg/kg, sc; assay type: functional, organism-based; parameters: dose 32 mg/kg; details: Striatum

Sequence of cGMP-inhibited 3',5'-cyclic phosphodiesterase 3A (Q14432 whole entry): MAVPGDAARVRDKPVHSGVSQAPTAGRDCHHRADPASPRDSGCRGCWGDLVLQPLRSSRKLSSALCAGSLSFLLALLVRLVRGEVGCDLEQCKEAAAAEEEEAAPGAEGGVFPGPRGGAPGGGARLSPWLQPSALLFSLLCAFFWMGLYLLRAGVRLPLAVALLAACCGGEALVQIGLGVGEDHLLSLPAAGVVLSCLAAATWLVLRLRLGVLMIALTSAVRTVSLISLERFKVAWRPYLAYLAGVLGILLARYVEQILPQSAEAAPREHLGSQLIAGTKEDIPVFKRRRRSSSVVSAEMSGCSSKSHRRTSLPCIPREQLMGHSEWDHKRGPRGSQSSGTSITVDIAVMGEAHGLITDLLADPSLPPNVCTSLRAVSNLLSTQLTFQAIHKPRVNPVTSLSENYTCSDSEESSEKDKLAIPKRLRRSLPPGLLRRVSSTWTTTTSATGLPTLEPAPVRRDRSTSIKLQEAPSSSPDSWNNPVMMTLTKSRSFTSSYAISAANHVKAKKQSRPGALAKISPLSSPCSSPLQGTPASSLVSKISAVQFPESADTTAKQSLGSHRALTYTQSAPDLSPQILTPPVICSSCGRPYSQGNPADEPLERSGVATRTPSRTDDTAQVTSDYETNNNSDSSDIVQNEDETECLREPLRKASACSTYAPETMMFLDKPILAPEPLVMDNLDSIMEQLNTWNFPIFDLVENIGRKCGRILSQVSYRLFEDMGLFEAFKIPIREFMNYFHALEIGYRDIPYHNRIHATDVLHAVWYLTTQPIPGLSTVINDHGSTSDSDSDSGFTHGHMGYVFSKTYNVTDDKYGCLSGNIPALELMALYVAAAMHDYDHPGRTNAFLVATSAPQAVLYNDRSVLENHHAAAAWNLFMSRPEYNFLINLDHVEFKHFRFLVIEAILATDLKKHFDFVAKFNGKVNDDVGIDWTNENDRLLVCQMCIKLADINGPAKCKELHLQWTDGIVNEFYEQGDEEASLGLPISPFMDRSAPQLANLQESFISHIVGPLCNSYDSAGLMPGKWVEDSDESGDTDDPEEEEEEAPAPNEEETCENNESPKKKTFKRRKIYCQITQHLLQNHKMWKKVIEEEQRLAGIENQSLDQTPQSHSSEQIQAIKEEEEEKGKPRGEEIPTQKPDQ
Sequence of cGMP-inhibited 3',5'-cyclic phosphodiesterase 3B (Q13370 whole entry): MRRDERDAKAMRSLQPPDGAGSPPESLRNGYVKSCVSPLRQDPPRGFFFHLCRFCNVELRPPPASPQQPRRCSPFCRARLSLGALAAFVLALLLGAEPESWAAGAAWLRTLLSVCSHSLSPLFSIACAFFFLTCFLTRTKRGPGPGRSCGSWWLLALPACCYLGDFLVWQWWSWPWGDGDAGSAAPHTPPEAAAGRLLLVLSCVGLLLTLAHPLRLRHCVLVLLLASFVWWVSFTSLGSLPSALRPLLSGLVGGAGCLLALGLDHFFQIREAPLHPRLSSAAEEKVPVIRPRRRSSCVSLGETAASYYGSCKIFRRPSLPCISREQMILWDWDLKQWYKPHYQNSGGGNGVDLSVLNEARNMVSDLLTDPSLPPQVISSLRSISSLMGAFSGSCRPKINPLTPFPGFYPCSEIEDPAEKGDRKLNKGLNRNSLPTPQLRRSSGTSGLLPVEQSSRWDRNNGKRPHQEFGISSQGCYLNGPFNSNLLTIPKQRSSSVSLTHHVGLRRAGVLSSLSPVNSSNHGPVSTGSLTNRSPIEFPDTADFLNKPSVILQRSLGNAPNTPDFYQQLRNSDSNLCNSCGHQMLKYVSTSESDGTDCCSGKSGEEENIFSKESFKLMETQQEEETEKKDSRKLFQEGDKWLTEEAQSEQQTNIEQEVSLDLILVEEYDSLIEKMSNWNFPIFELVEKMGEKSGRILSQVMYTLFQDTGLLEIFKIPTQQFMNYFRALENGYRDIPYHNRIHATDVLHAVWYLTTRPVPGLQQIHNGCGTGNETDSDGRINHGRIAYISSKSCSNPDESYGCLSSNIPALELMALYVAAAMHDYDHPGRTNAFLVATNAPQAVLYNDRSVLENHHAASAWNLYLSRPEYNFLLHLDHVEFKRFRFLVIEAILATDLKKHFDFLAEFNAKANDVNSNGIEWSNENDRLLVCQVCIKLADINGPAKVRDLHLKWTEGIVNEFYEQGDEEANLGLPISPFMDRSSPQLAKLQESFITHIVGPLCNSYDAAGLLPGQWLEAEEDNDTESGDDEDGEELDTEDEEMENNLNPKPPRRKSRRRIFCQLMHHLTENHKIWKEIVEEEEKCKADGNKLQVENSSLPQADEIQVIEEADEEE

Row | SMILES | Ki [1] | Ki [2] | IC50 [3] | Ki [3] | Activity (Mus musculus [4]) | Activity (Mus musculus [5]) | Activity (Mus musculus [6]) | Activity (Mus musculus [7])
1 | COc1cc2ncnc(N3CC[C@H](Oc4ccccc4OC)C3)c2cc1OC | > 100 nM | > 100 nM |  | 641 nM |  |  |  | 
2 | COc1cc2ncnc(N3CC[C@@H](Oc4ccccc4Cl)C3)c2cc1OC | < 100 nM | < 100 nM |  | 198 nM |  |  |  | 
3 | COc1cc2ncnc(N3CC[C@@H](Oc4ccccn4)C3)c2cc1OC | 207 nM | 77 nM |  | 123 nM |  |  |  | 
4 | COc1ccc(Cc2nccc3cc(OC)c(OC)cc23)cc1OC [PAPAVERINE] |  |  |  | 17 nM |  |  |  | 
5 | COc1cc2ncnc(N3CC[C@@H](Oc4ccc(C(C)(C)C)cc4)C3)c2cc1OC | 1890 nM | 720 nM |  | 100 nM |  |  |  | 
6 | COc1cc2ncnc(N3CC[C@@H](Oc4ccc(OC(F)(F)F)cc4)C3)c2cc1OC | 1820 nM | 739 nM |  | 185 nM |  |  |  | 
7 | COc1cc2ncnc(N3CC[C@@H](Oc4ncc(Cl)cn4)C3)c2cc1OC | 332 nM | 162 nM |  | 44 nM |  |  |  | 
8 | COc1ccc2cc(O[C@@H]3CCN(c4ncnc5cc(OC)c(OC)cc45)C3)ccc2c1 | 280 nM | 199 nM |  | 18 nM |  |  |  | 
9 | COc1cc2ncnc(N3CC[C@@H](Oc4cccc5ccccc45)C3)c2cc1OC | 56 nM | 48 nM |  | 210 nM |  |  |  | 
10 | COc1cc2ncnc(N3CC[C@@H](Oc4cnc5ccccc5n4)C3)c2cc1OC | 273 nM | 211 nM | 6 nM |  | Active | Active | Active | Active
11 | COc1cc2ncnc(N3CC[C@@H](Oc4ccccc4C#N)C3)c2cc1OC | < 100 nM | < 100 nM |  | 130 nM |  |  |  | 
12 | COc1ccc2ccc(O[C@@H]3CCN(c4ncnc5cc(OC)c(OC)cc45)C3)cc2c1 | 305 nM | 273 nM |  | 17 nM |  |  |  | 
13 | COc1cc2ncnc(N3CC[C@@H](Oc4cc5ccccc5cn4)C3)c2cc1OC | 196 nM | 151 nM |  | 19 nM |  |  |  | 
14 | COc1cc2ncnc(N3CC[C@@H](Oc4ccccc4OC)C3)c2cc1OC | > 100 nM | < 100 nM |  | 240 nM |  |  |  | 
15 | COc1cc2ncnc(N3CCc4ccc(S(=O)(=O)N5CCN(C)CC5)cc4C3)c2cc1OC |  |  |  | 25 nM |  |  |  | 
16 | COc1cc2ncnc(N3CC[C@@H](Oc4ccccc4C)C3)c2cc1OC | < 100 nM | < 100 nM |  | 326 nM |  |  |  | 
17 | COc1cc2ncnc(N3CC[C@@H](Oc4cccc(-c5ccccc5)c4)C3)c2cc1OC | 280 nM | 271 nM |  | 136 nM |  |  |  | 
18 | COc1cc2ncnc(N3CC[C@@H](Oc4ccccc4C(F)(F)F)C3)c2cc1OC | > 100 nM | < 100 nM |  | 811 nM |  |  |  | 
19 | CCOc1ccc(O[C@@H]2CCN(c3ncnc4cc(OC)c(OC)cc34)C2)cc1 | 328 nM | 161 nM |  | 54 nM |  |  |  | 

Now from value to molecule, other results behind:

Row | Ki [1] | Ki [2] | IC50 [3] | SMILES | Ki [3] | Activity (Mus musculus [4]) | Activity (Mus musculus [5]) | Activity (Mus musculus [6]) | Activity (Mus musculus [7])
20 | 474 nM | 370 nM |  | COc1cc2ncnc(N3CC[C@@H](Oc4cccc(C(C)C)c4)C3)c2cc1OC | 171 nM |  |  |  | 
21 | 685 nM | 226 nM |  | COc1cc2ncnc(N3CC[C@@H](Oc4ccncc4)C3)c2cc1OC | 112 nM |  |  |  | 
22 | 471 nM | 214 nM |  | COc1cc2ncnc(N3CC[C@@H](Oc4ccc(C#N)cc4)C3)c2cc1OC |  |  |  |  | 
23 | 237 nM | 141 nM |  | COc1cc2ncnc(N3CC[C@@H](Oc4ccc5c(c4)CCC5)C3)c2cc1OC | 68 nM |  |  |  | 
24 | 260 nM | 121 nM |  | COc1ccc(O[C@@H]2CCN(c3ncnc4cc(OC)c(OC)cc34)C2)cc1OC | 67 nM |  |  |  | 
25 | 748 nM | 302 nM |  | COc1cc2ncnc(N3CC[C@@H](Oc4cccnc4)C3)c2cc1OC | 128 nM |  |  |  | 
26 | 201 nM | 104 nM |  | COc1cc2ncnc(N3CC[C@@H](Oc4ccc5ncccc5c4)C3)c2cc1OC | 12 nM |  |  |  | 
27 | 240 nM | 209 nM |  | COc1cc2ncnc(N3CC[C@@H](Oc4ccc5cccnc5c4)C3)c2cc1OC | 12 nM |  |  |  | 
28 | 88 nM | 61 nM |  | CCOc1cccc(O[C@@H]2CCN(c3ncnc4cc(OC)c(OC)cc34)C2)c1 | 94 nM |  |  |  | 
29 | 223 nM | 152 nM |  | COc1cc2ncnc(N3CC[C@@H](Oc4ccc5nc(C)ccc5c4)C3)c2cc1OC | 18 nM |  |  |  | 
30 | 463 nM | 283 nM | 14 nM | COc1cc2ncnc(N3CC[C@@H](Oc4ccc5ccccc5c4)C3)c2cc1OC |  |  |  |  | 
